Starred links: 1 amine or outer side, 2 acyl side, 3 side chain; linkers in the order of their positions; H or OH if unused. Positions of bridges follow the written chain, without caps; N, C: chain ends. Non-standard residues stand in square brackets, D forms with d. Residues, ends and D or L forms follow the SMILES beside them. Chains are numbered I, II in the order given. N(4-MeOBn)Gly = COc1ccc(CNCC(=O)O)cc1; N((CH2)3OiPr)Gly = CC(C)OCCCNCC(=O)O; X1 = CC(c1ccccc1)N(CC(=O)[*:2])[*:1]; NAllylGly = C=CCNCC(=O)O; Nleu = CC(C)CNCC(=O)O; Nme = COCCNCC(=O)O
Test system: SARS-CoV-2 D614G pseudovirus
Format: cell-based, human H1299 cells

COCCN(CC(=O)NC(CCCCN)C(=O)NC(CCSC)C(=O)NCCCCC(NC(=O)C(CCSC)NC(=O)C(CCCCN)NC(=O)CN(CCOC)C(=O)CN(CC(C)C)C(=O)CN(CC(C)C)C(=O)CN(CCCOC(C)C)C(=O)CN(Cc1ccc(OC)cc1)C(=O)CNCc1ccc(OC)cc1)C(N)=O)C(=O)CN(CC(C)C)C(=O)CN(CC(C)C)C(=O)CN(CCCOC(C)C)C(=O)CN(Cc1ccc(OC)cc1)C(=O)CNCc1ccc(OC)cc1 (centres unmarked) [ACE2P2D1] (I: H-[N(4-MeOBn)Gly][N(4-MeOBn)Gly][N((CH2)3OiPr)Gly][Nleu][Nleu][Nme]KMK-NH2 / II: H-[N(4-MeOBn)Gly][N(4-MeOBn)Gly][N((CH2)3OiPr)Gly][Nleu][Nleu][Nme]KM; amide I:9-II:C; configuration not given here)
SARS-CoV-2 mutant pseudovirus infection: effective in inhibiting SARS-CoV-2 mutant pseudovirus infection

C=CCN(CC(=O)N(CC(=O)NC(CCCCN)C(=O)NC(CCSC)C(=O)NCCCCC(NC(=O)C(CCSC)NC(=O)C(CCCCN)NC(=O)CN(C(=O)CN(CC=C)C(=O)CN(Cc1ccc(OC)cc1)C(=O)CN(C(=O)CN(CCOC)C(=O)CNCC(C)C)C(C)c1ccccc1)C(C)c1ccccc1)C(N)=O)C(C)c1ccccc1)C(=O)CN(Cc1ccc(OC)cc1)C(=O)CN(C(=O)CN(CCOC)C(=O)CNCC(C)C)C(C)c1ccccc1 (centres unmarked) [ACE2P1D1] (I: H-[Nleu][Nme][X1][N(4-MeOBn)Gly][NAllylGly][X1]KMK-NH2 / II: H-[Nleu][Nme][X1][N(4-MeOBn)Gly][NAllylGly][X1]KM; amide I:9-II:C; configuration not given here)
SARS-CoV-2 mutant pseudovirus infection: effective in inhibiting SARS-CoV-2 mutant pseudovirus infection
